Test results from patent US20220144815A1, “1,3,4-OXADIAZOLES AND THEIR DERIVATIVES AS NEW ANTIFUNGAL AGENTS” (Bayer Aktiengesellschaft, priority 2018, published 2022).
Where two headings read alike, the source gives them in different places.

Tests used:
[1] = tested on: Colletotrichum lindemuthianum; assay: Example B: in vitro cell test, spore germination and mycelium growth in liquid culture; format: cell-based; conditions: 144 h, 20 ppm of tested compound, 6 days incubation, read-out: efficacy (inhibition of fungal growth)
In short: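 Compounds in DMSO (final ≤1%) added to glucose/peptone/yeast extract liquid medium containing C. lindemuthianum spores. After 6 days incubation, mycelium growth measured spectrometrically; inhibition calculated from absorbance versus compound-free control wells.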

[2] = Log P by HPLC on reversed phase columns, method [a] (EEC directive 79/831 Annex V.A8); format: physicochemical; conditions: reversed phase HPLC column
In short: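 Reversed-phase HPLC with LC-UV detection per EEC directive 79/831 Annex V.A8, acidic eluent of 0.1% formic acid in water and acetonitrile, linear gradient 10% to 95% acetonitrile. Log P derived from retention times, calibrated against straight-chain alkan-2-ones (C3–C16) by linear interpolation.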

[3] = tested on: Puccinia recondita; assay: Example D: in vivo preventive test (brown rust on wheat); conditions: 264 h, 500 ppm of tested compound, preventive spray, evaluated 11 days after inoculation, read-out: efficacy
Procedure: Solvent: 5% by volume of dimethyl sulfoxide • 10% by volume of acetone Emulsifier: 1 μL of Tween® 80 per mg of active ingredient The tested compounds were made soluble and homogenized in a mixture of dimethyl sulfoxide/acetone/Tween® 80 and then diluted in water to the desired concentration. The young plants of wheat were treated by spraying the tested compound prepared as described above. Control plants were treated only with an aqueous solution of acetone/dimethyl sulfoxide/Tween® 80. After 24 hours, the plants were contaminated by spraying the leaves with an aqueous suspension of Puccinia recondita spores. The contaminated wheat plants were incubated for 24 hours at 20° C. and at 100% relative humidity and then for 10 days at 20° C. and at 70-80% relative humidity. The test was evaluated 11 days after the inoculation. 0% means an efficacy which corresponds to that of the control plants while an efficacy of 100% means that no disease was observed.

[4] = tested on: Phakopsora pachyrhizi; assay: Example F: in vivo preventive test (soybeans), DMSO/acetone/Tween 80; conditions: 288 h, 500 ppm of tested compound, preventive spray, soybean, evaluated 12 days after inoculation, read-out: efficacy
Procedure: Solvent: 5% by volume of dimethyl sulfoxide • 10% by volume of acetone
Emulsifier: 1 μL of Tween® 80 per mg of active ingredient
The tested compounds were made soluble and homogenized in a mixture of dimethyl sulfoxide/acetone/Tween® 80 and then diluted in water to the desired concentration.
The young plants of wheat were treated by spraying the tested compound prepared as described above. Control plants were treated only with an aqueous solution of acetone/dimethyl sulfoxide/Tween® 80.
After 24 hours, the plants were contaminated by spraying the leaves with an aqueous suspension of Phakospora pachyrhizi spores. The contaminated soybean plants were incubated for 24 hours at 24° C. and at 100% relative humidity and then for 11 days at 24° C. and at 70-80% relative humidity.
The test was evaluated 12 days after the inoculation. 0% means an efficacy which corresponds to that of the control plants while an efficacy of 100% means that no disease was observed.

[5] = tested on: Botrytis cinerea; assay: Example C: in vivo preventive test (grey mould) on gherkin or cabbage; conditions: 500 ppm of active ingredient, preventive spray, evaluated 4 to 5 days after inoculation, read-out: efficacy
Procedure: Solvent: 5% by volume of dimethyl sulfoxide • 10% by volume of acetone Emulsifier: 1 μl of Tween® 80 per mg of active ingredient The tested compounds were made soluble and homogenized in a mixture of dimethyl sulfoxide/acetone/Tween® 80 and then diluted in water to the desired concentration. The young plants of gherkin or cabbage were treated by spraying the tested compound prepared as described above. Control plants were treated only with an aqueous solution of acetone/dimethyl sulfoxide/Tween® 80. After 24 hours, the plants were contaminated by spraying the leaves with an aqueous suspension of Botrytis cinerea spores. The contaminated gherkin plants were incubated for 4 to 5 days at 17° C. and at 90% relative humidity. The contaminated cabbage plants were incubated for 4 to 5 days at 20° C. and at 100% relative humidity. The test was evaluated 4 to 5 days after the inoculation. 0% means an efficacy which corresponds to that of the control plants while an efficacy of 100% means that no disease was observed.

[6] = tested on: Alternaria brassicae; assay: Example E: in vivo preventive test (cabbage); conditions: 144 h, 500 ppm of tested compound, preventive spray, evaluated 6 days after inoculation, read-out: efficacy
Procedure: Solvent: 5% by volume of dimethyl sulfoxide • 10% by volume of acetone Emulsifier: 1 μL of Tween® 80 per mg of active ingredient The tested compounds were made soluble and homogenized in a mixture of Dimethyl sulfoxide/Acetone/Tween® 80 and then diluted in water to the desired concentration. The young plants of cabbage were treated by spraying the tested compound prepared as described above. Control plants were treated only with an aqueous solution of Acetone/Dimethyl sulfoxide/Tween® 80. After 24 hours, the plants were contaminated by spraying the leaves with an aqueous suspension of Alternaria brassicae spores. The contaminated cabbage plants were incubated for 6 days at 20° C. and at 100% relative humidity. The test was evaluated 6 days after the inoculation. 0% means an efficacy which corresponds to that of the control plants while an efficacy of 100% means that no disease was observed.

[7] = log P determined according to method [a] (HPLC on reversed phase columns), read-out: logP
[8] = method [a], HPLC on reversed phase columns, read-out: logP

Compound	inhibition of growth at 20 µg/mL [1]	chromatographic logP [2, 7]	pest or weed control at 500 µg/mL [3]	pest or weed control at 500 µg/mL [4]	pest or weed control at 500 ppm [5]	pest or weed control at 500 µg/mL [6]	chromatographic logP ([2]; Method A: LC-UV, acidic range, 0.1% formic acid in water and acetonitrile, read-out: Log P)	chromatographic logP [2, 8]
CC(Nc1ncc(-c2nnc(C(F)F)o2)cn1)c1ccc(F)cc1 (racemic) [I.125, 5-[5-(difluoromethyl)-1,3,4-oxadiazol-2-yl]-N-[(1RS)-1-(4-fluorophenyl)ethyl]pyrimidin-2-amine]	80 to 89%	2.89	90 to 100%	90 to 100%	–	–	–	–
FC(F)c1nnc(-c2cnc(NC(c3ccccc3)C3CC3)nc2)o1 (racemic) [I.136, N—[(RS)-cyclopropyl(phenyl)methyl]-5-[5-(difluoromethyl)-1,3,4-oxadiazol-2-yl]pyrimidin-2-amine]	80 to 89%	3.14	80 to 89%	90 to 100%	–	–	–	–
Nc1ccc(-c2nnc(C(F)F)o2)cn1 [I.030, 5-[5-(difluoromethyl)-1,3,4-oxadiazol-2-yl]pyridin-2-amine]	–	–	–	–	80 to 89%	–	–	–
CC(=O)Nc1ccc(-c2nnc(C(F)F)o2)cn1 [I.034, N-{5-[5-(difluoromethyl)-1,3,4-oxadiazol-2-yl]pyridin-2-yl}acetamide]	–	–	–	–	80 to 89%	–	–	–
O=C(Cc1ccccc1)Nc1ccc(-c2nnc(C(F)F)o2)cn1 [I.050, N-{5-[5-(difluoromethyl)-1,3,4-oxadiazol-2-yl]pyridin-2-yl}-2-phenylacetamide]	–	–	–	–	80 to 89%	–	–	–
Fc1ccccc1Nc1ccc(-c2nnc(C(F)(F)Cl)o2)cn1 [I.053, 5-{5-[chloro(difluoro)methyl]-1,3,4-oxadiazol-2-yl}-N-(2-fluorophenyl)pyridin-2-amine]	–	–	–	–	80 to 89%	–	–	–
Fc1ccccc1Nc1ncc(-c2nnc(C(F)(F)F)o2)cn1 [I.116, N-(2-fluorophenyl)-5-[5-(trifluoromethyl)-1,3,4-oxadiazol-2-yl]pyrimidin-2-amine]	–	2.99	–	–	80 to 89%	–	–	–
FC(F)c1nnc(-c2cnc(OC3(c4ccccc4)CC3)nc2)o1 [I.120, 5-[5-(difluoromethyl)-1,3,4-oxadiazol-2-yl]-2-[(1-phenylcyclopropyl)oxy]pyrimidine]	70 to 79%	2.95	70 to 79%	90 to 100%	–	–	–	–
Cc1ccccc1C1(Nc2ncc(-c3nnc(C(F)F)o3)cn2)CC1 [I.132, 5-[5-(difluoromethyl)-1,3,4-oxadiazol-2-yl]-N-[1-(2-methylphenyl)cyclopropyl]pyrimidin-2-amine]	70 to 79%	3.23	80 to 89%	90 to 100%	–	–	–	–
Cc1ccc(C2(Nc3ncc(-c4nnc(C(F)F)o4)cn3)CC2)cc1 [I.133, 5-[5-(difluoromethyl)-1,3,4-oxadiazol-2-yl]-N-[1-(4-methylphenyl)cyclopropyl]pyrimidin-2-amine]	–	3	90 to 100%	90 to 100%	–	70 to 79%	–	–
FC(F)c1nnc(-c2cnc(NC3(c4ccccn4)CCC3)nc2)o1 [I.137, 5-[5-(difluoromethyl)-1,3,4-oxadiazol-2-yl]-N-[1-(pyridin-2-yl)cyclobutyl]pyrimidin-2-amine]	–	1.2	90 to 100%	90 to 100%	–	90 to 100%	–	–
Fc1cccc(C2(Nc3ncc(-c4nnc(C(F)F)o4)cn3)CC2)c1 [I.145, 5-[5-(difluoromethyl)-1,3,4-oxadiazol-2-yl]-N-[1-(3-fluorophenyl)cyclopropyl]pyrimidin-2-amine]	80 to 89%	2.72	90 to 100%	90 to 100%	–	–	–	–
CC(C)(Nc1ncc(-c2nnc(C(F)F)o2)cn1)c1ccc(F)cc1 [I.150, 5-[5-(difluoromethyl)-1,3,4-oxadiazol-2-yl]-N-[2-(4-fluorophenyl)propan-2-yl]pyrimidin-2-amine]	80 to 89%	–	90 to 100%	90 to 100%	–	70 to 79%	3.26	–
FC(F)c1nnc(-c2cnc(NC3(c4ccccc4)CCCC3)nc2)o1 [I.153, 5-[5-(difluoromethyl)-1,3,4-oxadiazol-2-yl]-N-(1-phenylcyclopentyl)pyrimidin-2-amine]	–	3.57	–	–	70 to 79%	–	–	–
COc1cccc(C2(Nc3ncc(-c4nnc(C(F)F)o4)cn3)CC2)c1 [I.156, 5-[5-(difluoromethyl)-1,3,4-oxadiazol-2-yl]-N-[1-(3-methoxyphenyl)cyclopropyl]pyrimidin-2-amine]	–	2.62	90 to 100%	90 to 100%	–	90 to 100%	–	–
COc1ccc(C2(Nc3ncc(-c4nnc(C(F)F)o4)cn3)CC2)cc1 [I.157, 5-[5-(difluoromethyl)-1,3,4-oxadiazol-2-yl]-N-[1-(4-methoxyphenyl)cyclopropyl]pyrimidin-2-amine]	80 to 89%	2.62	90 to 100%	90 to 100%	–	70 to 79%	–	–
Fc1ccccc1C1(Nc2ncc(-c3nnc(C(F)(F)F)o3)cn2)CC1 [I.165, N-[1-(2-fluorophenyl)cyclopropyl]-5-[5-(trifluoromethyl)-1,3,4-oxadiazol-2-yl]pyrimidin-2-amine]	80 to 89%	3.47	90 to 100%	90 to 100%	–	–	–	–
FC(F)c1nnc(-c2cnc(Nc3ccccc3-c3ccccc3)nc2)o1 [I.166, N-([biphenyl]-2-yl)-5-[5-(difluoromethyl)-1,3,4-oxadiazol-2-yl]pyrimidin-2-amine]	80 to 89%	3.37	90 to 100%	90 to 100%	–	70 to 79%	–	–
FC(F)c1nnc(-c2cnc(NC3(c4cccc(Cl)c4)CCC3)nc2)o1 [I.175, N-[1-(3-chlorophenyl)cyclobutyl]-5-[5-(difluoromethyl)-1,3,4-oxadiazol-2-yl]pyrimidin-2-amine]	80 to 89%	–	90 to 100%	–	–	70 to 79%	–	3.67
Fc1cccc(F)c1C1(Nc2ncc(-c3nnc(C(F)F)o3)cn2)CCC1 [I.177, 5-[5-(difluoromethyl)-1,3,4-oxadiazol-2-yl]-N-[1-(2,6-difluorophenyl)cyclobutyl]pyrimidin-2-amine]	90 to 100%	–	90 to 100%	90 to 100%	–	80 to 89%	–	3.5
